Measurements: BindingDB's records for patent US9120808 (Nabriva Therapeutics, 2015)
Values joined by “and” are separate entries in the source; they are usually repeats but may differ in a detail not shown here. Equal entries are not always repeated.

Tests used:
Beta-lactamase = Beta-lactamase (Escherichia coli (strain K12), UniProt P00811); experiment: Cell Free Inhibition Assay; details: pH 7; 37 °C
Method: (§1) Assays are performed with beta -lactamases expressed in the pET system (Novagen, San Diego, Calif.) without signal peptides. They contain an N-terminal hexa-Histidine tag that is used for purification on Ni-NTA (Qiagen, Hilden, Germany). The compounds are prepared as 50 mM stocks in DMSO and diluted into buffer P1 (50 mM phosphate, pH 7) to a final concentration of 10% DMSO. All further dilutions are done in P2 (P1 with 10% DMSO). Enzyme and compound dilutions are pre-incubated for 10 min at 37 C. and the reaction is started with the addition of pre-warmed (37 C.) […]. The change in absorption at 490 nm is followed at 37 C. for 10 min with 30 s intervals.

Beta-lactamase TEM = Beta-lactamase TEM (Escherichia coli, UniProt P62593); experiment: Cell Free Inhibition Assay; details: pH 7; 37 °C
Chain of Beta-lactamase TEM (P62593 whole entry): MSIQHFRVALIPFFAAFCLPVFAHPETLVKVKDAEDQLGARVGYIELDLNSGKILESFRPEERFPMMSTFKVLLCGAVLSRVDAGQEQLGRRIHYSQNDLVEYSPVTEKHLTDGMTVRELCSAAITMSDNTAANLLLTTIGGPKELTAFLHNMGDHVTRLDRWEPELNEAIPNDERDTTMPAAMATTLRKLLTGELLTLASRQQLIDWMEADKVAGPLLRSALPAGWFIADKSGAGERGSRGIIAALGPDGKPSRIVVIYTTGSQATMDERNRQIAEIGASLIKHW
Method: as §1

Chain of Beta-lactamase (P00811 whole entry): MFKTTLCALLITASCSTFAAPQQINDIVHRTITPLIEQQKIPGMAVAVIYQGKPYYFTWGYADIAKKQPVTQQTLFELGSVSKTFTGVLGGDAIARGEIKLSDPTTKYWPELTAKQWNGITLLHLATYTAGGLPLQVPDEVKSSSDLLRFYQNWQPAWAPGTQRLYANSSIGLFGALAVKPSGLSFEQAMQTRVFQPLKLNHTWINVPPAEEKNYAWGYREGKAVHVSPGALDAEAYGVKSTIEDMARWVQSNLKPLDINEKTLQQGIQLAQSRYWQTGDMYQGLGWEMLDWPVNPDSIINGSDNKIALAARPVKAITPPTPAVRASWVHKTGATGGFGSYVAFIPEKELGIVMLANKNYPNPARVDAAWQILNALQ

Row | Compound | IC50 (Beta-lactamase) | IC50 (Beta-lactamase TEM) [µM]
1 | O=CC=C1O[C@@H]2CC(=O)N2C1(CC=CCO)C(=O)OCc1ccccc1 (single isomer, unassigned) [US9120808, Example 9] | 115 µM and 14.3 µM | 
2 | O=C(O)C=C1O[C@@H]2CC(=O)N2C1(C/C=C/c1ccccc1)C(=O)OCc1ccccc1 (single isomer, unassigned) [US9120808, Example 28] | 6.02 µM and 11.7 µM | 
3 | COC(=O)C1(C/C=C/c2ccccc2)C(=CC(=O)O)O[C@@H]2CC(=O)N21 (single isomer, unassigned) [US9120808, Example 36] | 41.1 µM and 4.19 µM | 
4 | O=C1OC(CI)CC1=C1O[C@@H]2CC(=O)N2C1C(=O)OCc1ccccc1 (single isomer, unassigned) [US9120808, Example 42] | 0.285 µM and 0.385 µM | 
5 | C=CCC(C=O)=C1O[C@@H]2CC(=O)N2C1C(=O)OCc1ccccc1 (some centres not stated) [US9120808, Example 1] | 10.4 µM | 
6 | C=CCC1(C(=O)OCc2ccccc2)C(=CC=O)O[C@@H]2CC(=O)N21 (some centres not stated) [US9120808, Example 2] | 58.8 µM | 
7 | C=CCC(C=O)=C1O[C@@H]2CC(=O)N2C1(CC=C)C(=O)OCc1ccccc1 (some centres not stated) [US9120808, Example 3] | 95.1 µM | 
8 | O=CC(CC=CCO)=C1O[C@@H]2CC(=O)N2C1C(=O)OCc1ccccc1 (some centres not stated) [US9120808, Example 7] | 5.38 µM | 
9 | CC(=O)OCC=CCC(C=O)=C1O[C@@H]2CC(=O)N2C1C(=O)OCc1ccccc1 (some centres not stated) [US9120808, Example 10] | 16 µM | 
10 | C=CCC(C=O)=C1O[C@@H]2CC(=O)N2C1C(=O)OC (some centres not stated) [US9120808, Example 16] | 0.941 µM | 
11 | C=CCC1(C(=O)OC)C(=CC=O)O[C@@H]2CC(=O)N21 (some centres not stated) [US9120808, Example 17] | 36 µM | 
12 | C=CCC(C(=O)O)=C1O[C@@H]2CC(=O)N2C1C(=O)OCc1ccccc1 (some centres not stated) [US9120808, Example 24] | 4.98 µM | 
13 | C=CCC(C(=O)O)=C1O[C@@H]2CC(=O)N2C1C(=O)OC (some centres not stated) [US9120808, Example 32] | 2.86 µM | 
14 | CC1CC(=C2O[C@@H]3CC(=O)N3C2C(=O)O)C(=O)O1 (some centres not stated) [US9120808, Example 50] | 27 µM | 
15 | CCCC(C(=O)O)=C1O[C@@H]2CC(=O)N2C1C(=O)O (some centres not stated) [US9120808, Example 51] | 415 µM | 
16 | COC(=O)C1C(=C(CCCc2ccccc2)C(=O)O)O[C@@H]2CC(=O)N12 (some centres not stated) [US9120808, Example 53] | 0.541 µM | 
17 | CCCC(C(=O)O)=C1O[C@@H]2CC(=O)N2C1C(=O)OC (some centres not stated) [US9120808, Example 54] | 3.42 µM | 
18 | CCCC(CO)=C1O[C@@H]2CC(=O)N2C1C(=O)O (some centres not stated) [US9120808, Example 55] |  | 118
19 | CCCC1(C(=O)O)/C(=C/CO)O[C@@H]2CC(=O)N21 (some centres not stated) [US9120808, Example 56] |  | 17.8
20 | COC(=O)C(CCCc1ccccc1)=C1O[C@@H]2CC(=O)N2C1C(=O)OC (some centres not stated) [US9120808, Example 57] | 5.33 µM | 
21 | O=C(O)C(CC=CCN(Cc1ccccc1)C(=O)OCc1ccccc1)=C1O[C@@H]2CC(=O)N2C1C(=O)OCc1ccccc1 (some centres not stated) [US9120808, Example 58] | 4.51 µM | 
22 | O=C(OCc1ccccc1)C1C(=C2COC(CI)C2)O[C@@H]2CC(=O)N12 (some centres not stated) [US9120808, Example 59] | 6.45 µM | 
